{
  "source": "patent US11903955B2",
  "about": "“Methods of treating heart failure with reduced ejection fraction” (ASTRAZENECA AB, priority 2019, dated 2024)",
  "origin": "cited, not measured here",
  "key": {"[1]": {"tested_on": "patients with systolic heart failure", "details": "after 12 months of treatment, SHIFT; cited from earlier work"}, "patients with HFrEF": {"tested_on": "patients with HFrEF", "details": "after 8 months of treatment, PARADIGM-HF; cited from earlier work"}},
  "data": [
    {"molecule": "COc1cc2c(cc1OC)CC(=O)N(CCCN(C)C[C@H]1Cc3cc(OC)c(OC)cc31)CC2", "note": "[ivabradine]", "values": [
      {"measurement": "mean improvement in KCCQ-CSS", "setting": "[1]", "value": 1.8, "unit": "point"},
      {"measurement": "mean improvement in KCCQ-OSS", "setting": "[1]", "value": 2.4, "unit": "point"}
    ]},
    {"molecule": "sacubitril-valsartan", "values": [
      {"measurement": "improvement in KCCQ-CS over enalapril", "setting": "patients with HFrEF", "value": 0.9, "unit": "point"},
      {"measurement": "improvement in KCCQ-OS over enalapril", "setting": "patients with HFrEF", "value": 1.3, "unit": "point"}
    ]}
  ]
}
